{
  "source": "patent US20100098670A1",
  "about": "“Autologous dental pulp stem cell-based bone graft substitute” (Cerapedics Inc., priority 2007, published 2010)",
  "key": {"HDPSCs": {"test_system": "HDPSCs", "test": "ALP and toluidine blue staining of HDPSCs cultured on scaffolds", "assay_type": "cell-based, human", "details": "isolated HDPSCs on scaffolds", "experimental": "(§1) The HDPSCs were isolated from human dental pulp tissues and cultured on ABM and ABM-P-15 scaffolds in media. The cultured cells on the scaffolds were analysed by live/dead fluorescent markers, histological staining (ALP, Alizalin Red, Toluidine blue), confocal microscopy and scanning electron microscopy. The effect of P-15 on HDPSCs BMP-2 production was confirmed by a well developed promyoblast induction assay via co-culturing of C2C12 promyoblasts and HDPSCs on ABM or ABM-P-15. […] Cell outgrowth from the explants was assessed by live/dead fluorescent markers, histological staining (ALP), confocal microscope and scanning electron microscopy."}, "[1]": {"test_system": "human dental pulp explants", "test": "Cell outgrowth from human dental pulp explants cultured with scaffolds (live/dead markers, confocal microscopy, SEM)", "assay_type": "cell-based", "details": "fluorescence, confocal or SEM images", "experimental": "as §1\nTeeth were obtained with patients' informed consent following project approval by the NHS local ethical committee (COREC: 06/Q1206/165). Human dental pulp was extracted from sound intact teeth, which had been surgically removed at the Leeds Dental Institute for clinical reasons. Each tooth was washed within a Class II hood and cracked in a bench vice. The dental pulp tissues were harvested and washed with 1×PBS and minced into small pieces (1×2×2 mm^3) which were kept in the PBS and ready for use.\nPepGen P-15 (ABM-P15) and/or Osteo-Graf/N-300 (ABM alone) were provided by Cerapedics Inc. (Lakewood, Colo.) in a particulate form. 50 mg of ABM-P-15 and ABM alone were transferred into the 48 well plates and sterilized under UV radiation for 30 minutes. […]"}},
  "note": "“Also recorded” adds a separate entry of the source. Ends that are not written are not given here.",
  "data": [
    {"sequence": "GTPGPQGIAGQRGVV [P-15, collagen mimetic, 15 amino acid residues of the α1(I) chain of collagen]", "values": [
      {"measurement": "HDPSCs differentiation along the osteogenic lineage (ALP expression)", "setting": "HDPSCs", "value": "promoted the HDPSCs differentiation along the osteogenic lineage; also recorded: promoted HDPSCs differentiation along the osteogenic lineage"},
      {"measurement": "outgrowth of HDPSCs from dental pulp explants", "setting": "[1]; 50 mg scaffold, basal media", "value": "enhanced the outgrowth"},
      {"measurement": "cell bridge formation between adjacent scaffold particles", "setting": "[1]; explant culture", "value": "promoted cell bridge formation"}
    ]}
  ]
}
